7 compounds from paper PMC11597697, “Chemical Composition and Bioactivity Dataset Integration to Identify Antiproliferative Compounds in Phyllanthus Plants” (Pharmaceutics, 2024) can be followed below.

Experiment [1] concerns PC-3 (prostate adenocarcinoma). Nature of the experiment: Antiproliferative MTT assay, PC-3. It is filed as cell-based. The settings on record: Homo sapiens, read-out: IC50 PC-3. How it is done:
(§1) Human cancer cell lines—prostatic adenocarcinoma (PC-3, ATCC CRL-7934), lung adenocarcinoma (A549, ATCC CCL-185), and cervical carcinoma (SiHa, ATCC HTB-35)—along with normal mouse fibroblasts (L929, ATCC CRL-6364) were cultured as monolayers in Dulbecco’s Modified Eagle Medium (DMEM) supplemented with 10% (v/v) fetal bovine serum (FBS), 1% (v/v) penicillin, and 1% (v/v) streptomycin. These cultures were maintained at 37 °C in a humidified atmosphere with 5% CO2. The antiproliferative effects of Phyllanthus-derived extracts and isolated compounds were evaluated using a previously described method. Cells were seeded at 5 × 10^3/well in 96-well plates (100 µL) and incubated for 24 h. After incubation, the medium was replaced with 100 µL of serum-free medium containing varying concentrations of the treatments (0.5–250 µg/mL for extracts and 0.01–100 µg/mL for pure compounds). Each treatment was tested in triplicate. Controls included a PBS-containing medium as a blank, 1% (w/v) bovine serum albumin-amended medium as a negative control (100% survival), and podophyllotoxin (0.16–100 µg/mL) as a positive control. After 48 h of treatment, cell viability was determined by adding 10 µL of MTT (5 mg/mL) to each well, followed by a 3-h incubation under the same culture conditions. The resulting formazan crystals were dissolved in 100 µL of DMSO, and absorbance was measured at 570 nm using a Varioskan LUX 96-well plate reader (Thermo Fisher Scientific, Waltham, MA, USA). The antiproliferative effects were quantified as the half-maximal inhibitory concentration (IC50) in µg/mL for extracts and µM for pure compounds. Dose–response curves were used to determine IC50 values from non-linear regression using GraphPad 7.0 (GraphPad, San Diego, CA, USA).

Experiment [2] concerns SiHa (cervical carcinoma). Briefly: Antiproliferative MTT assay, SiHa. The settings on record: Homo sapiens. It is filed as cell-based. The method, then: as §1
A further experiment has as its system A549 (lung carcinoma). Briefly: Antiproliferative MTT assay, A549. The settings on record: Homo sapiens, read-out: IC50 A549. It is filed as cell-based. The method, then: as §1
Experiment [3] concerns L929 (murine fibroblasts). Nature of the experiment: Antiproliferative MTT assay, normal fibroblasts L929. It is filed as cell-based, mouse. The following applies: for IC50: Mus musculus, read-out: IC50 L929. How it is done:
as §1

[4] abbreviates: pure compounds, 48 h treatment, MTT.
[5] abbreviates: pure compounds, 48 h treatment, MTT, read-out: IC50 SiHa.
Where [6] appears, read: A549, pure compounds, 48 h treatment, MTT.
[7] abbreviates: L929, pure compounds, 48 h treatment, MTT, normal cell line.

Like-named read-outs stand apart in the source and are kept apart here. Some results are limits rather than exact numbers.

For the compound `COc1cc(C=C2C(=O)OCC2Cc2ccc(O)c(OC)c2)ccc1O` (single isomer, unassigned; (+)) [Compound 2, (+)-acutissimalignan B], the IC50 was 6.55 µM in experiment [1] (setting [4]), 56.8 µM in experiment [2] (setting [5]), 78.6 µM in the experiment on A549 (lung carcinoma) (setting [6]) and more than 100 µM in experiment [3] (setting [7]). Moreover, in experiment [3] (pure compounds, 48 h treatment, MTT, normal cell line), the “IC50 L929” value was “no observed cytotoxicity”.
Take `COc1cc(-c2c3c(c(OC)c4cc5c(cc24)OCO5)C(OC(C)=O)OC3=O)cc2c1OCO2` (single isomer, unassigned; (+)) [Compound 6, (+)-5-methoxy-9-(7-methoxybenzo[d][1,3]dioxol-5-yl)-8-oxo-6,8-dihydrofuro[3′,4′:6,7]naphtho[2,3-d][1,3]dioxol-6-yl acetate]: the IC50 in experiment [1] (48 h) stood at 15.3 µM; in experiment [2] (48 h, read-out: IC50 SiHa, pure compounds, 48 h treatment, MTT) it was 3.62 µM; in the experiment with A549 (lung carcinoma) (A549, 48 h), 26.5 µM; in experiment [3] (L929, 48 h), 86.3 µM.
Turning to `COc1cc([C@@H]2c3cc4c(cc3[C@H](O)[C@H]3COC(=O)[C@H]23)OCO4)cc(OC)c1OC` [ppt, podophyllotoxin, reference compound], the IC50 in experiment [1] (48 h) came out at 2.22 µM; in experiment [2] (48 h, read-out: IC50 SiHa), 1.85 µM; with A549 (lung carcinoma) (A549, 48 h), 4.82 µM; in experiment [3] (L929, 48 h), 2.53 µM.
`O=C1OC[C@H](Cc2ccc3c(c2)OCO3)[C@H]1Cc1ccc2c(c1)OCO2` [Compound 4, (−)-hinokinin]: the IC50 came to 4.55 µM in experiment [1] (setting [4]), 61.2 µM in experiment [2] (setting [5]), 12.3 µM in the experiment with A549 (lung carcinoma) (setting [6]) and 76.3 µM in experiment [3] (setting [7]).
Turning to `COc1cc2c(OC)c3c(c(-c4ccc5c(c4)OCO5)c2cc1OC)C(=O)OC3` [Compound 5, justicidin A], the IC50 in experiment [1] (setting [4]) is 17.6 µM; in experiment [2] (setting [5]), 6.53 µM; with A549 (lung carcinoma) (setting [6]), 50.3 µM; in experiment [3] (setting [7]), more than 100 µM.
Consider `COc1cc2c(OC)c3c(c(-c4ccc5c(c4)OCO5)c2cc1O)C(=O)OC3` [Compound 3, phyllanthusmin A], for which the IC50 came out at 16.3 µM in experiment [1] (setting [4]), 8.61 µM in experiment [2] (setting [5]), 93.2 µM with A549 (lung carcinoma) (setting [6]) and 92.3 µM in experiment [3] (setting [7]).
As to `COc1cc2c(OC)c3c(c(-c4ccc5c(c4)OCO5)c2cc1OC)C(=O)OC3OC` (centres unmarked) [Compound 7, justicidin P], the IC50 in experiment [1] (setting [4]) is 15.2 µM; in experiment [2] (setting [5]) it was 5.23 µM; in the experiment with A549 (lung carcinoma) (setting [6]) it was 45.3 µM; in experiment [3] (setting [7]) it was more than 100 µM.
